From US10800755B2, “2,6-disubstituted pyridine derivative” (Sumitomo Dainippon Pharma Co., Ltd., priority 2017, dated 2020)

Key:
ICR male mouse = experiment: Test 7: marble-burying behavior test; assay type: in vivo
Description: Test 7: Marble-Burying Behavior Test
The effect of the present compound for obsessive-compulsive disorder-like behavior was evaluated in a manner mentioned below.
450-500 g of paper floorcloth was beded in a plastic cage (floor area: 778 cm^2), and 20 glass marbles were set on the paper floorcloth at regular intervals. To a 5-week-old ICR male mouse, the present compound was intraperitoneally administered with saline solution. 15 minutes after the administration, the mouse was made to softly enter the corner of the cage and move freely in the cage for 15 minutes. Then the mouse was taken out from the cage. The number of the marbles that were buried in the floorcloth was counted. The numbers in the solvent-administration group and the present compound-administration group were compared to be statistically processed.

human D4 receptor [1] = target: T1, human D4 receptor (Homo sapiens (Human), UniProt P21917); experiment: Test 2: binding activity to human D4 receptor ([3H] dopamine, CHO cell membrane); conditions: [3H] dopamine; read-out: D4 binding affinity (Ki value)
[2] = Test 4-1: predictive test of human half-life (monkey distribution volume, serum unbound fraction, Test 3-1 stability); conditions: in vivo, predicted using Test 3-1 metabolic stability
Description: Test 4-1: Predictive Test of Human Half-Life
0.01 mol/L of the present compound in aqueous hydrochloric acid solution was parenterally administered to cynomolgus monkey. 5 minutes, 15 minutes, 30 minutes, 1 hour, 2 hours, 4 hours, 6 hours, and 24 hours after the administration, the blood was collected. The plasma was obtained from the collected blood, the drug concentration in the plasma was measured with a LC-MS, and the monkey distribution volume was calculated from the transition of the concentrations. The unbound fraction rate of the present compound in serum of human and monkey was measured by equilibrium dialysis method.
Using the monkey distribution volume, the unbound fraction rate in serum of human and monkey, and the result of the metabolic stability of human liver microsome which was obtained in Test 3-1, the half-life in human was calculated according to the formula below. “Human distribution volume”=“monkey distribution volume”×“unbound fraction rate in serum of human”/“unbound fraction rate in serum of monkey” “Human hepatic clearance”=(“human hepatic blood flow”×“unbound fraction rate in serum of human”×56.7×“metabolic stability of human liver microsome”)/(“human hepatic blood flow”+“unbound fraction rate in serum of human”×56.7×“metabolic stability of human liver microsome”) “Half-life in human”=0.693×“human distribution volume”/“human hepatic clearance”

human 5-HT1A receptor = human 5-HT1A receptor (Homo sapiens (Human), UniProt P08908); experiment: Test 1: agonistic activity for human 5-HT1A receptor (aequorin/Gα16 luminescence in CHO-K1 cell); assay type: cell-based
Outline: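 Aequorin and Gα16 transiently co-expressed with each receptor in CHO-K1 cells, cultured 24 h at 37 °C. Compounds added from DMSO solution; agonism read as change in luminescence.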

SD male rat = experiment: Test 6: contextual fear conditioning test; assay type: in vivo; conditions: 15 mg/kg administration
Description: Test 6: Contextual Fear Conditioning Test
The antianxiety of the present compounds was evaluated in a manner mentioned below.
The evaluation of an 8-week-old SD male rat with a fear conditioning test system (O'HARA & CO., LTD.) was carried out in 2-day test schedule. On the 1st day of the test, by giving 0.5 mA of electric shock to the rat as unconditioned stimulus 5 times for 6 minutes, the rat was made to learn the relationship the context (the illuminance in the cage: 200 lx) which was given as conditioned stimulus, and phobic stimulus. On the 2nd day, the present compound was subcutaneously administered with saline solution to the rat, or orally administered with methylcellulose suspension to the rat. 0.5 or 1 hour after the administration, the rat was made to softly enter the cage under the condition in which the unconditioned stimulus was not given in the context. The time of cataleptic freezing reaction that the rat took for 5-minute freely-moving period and its ratio were measured. The ratios of cataleptic freezing reaction between the solvent-administration group and the present compound-administration group were compared to be statistically processed.

human D4 receptor [3] = target: T1, human D4 receptor; experiment: Test 1: agonistic activity for human D4 receptor (aequorin/Gα16 luminescence in CHO-K1 cell); assay type: cell-based
[4] = CHO-K1, 100% = 10 μmol/L endogenous ligand
[5] = CHO-K1 cell, aequorin luminescence

T1 sequence (P21917 whole entry): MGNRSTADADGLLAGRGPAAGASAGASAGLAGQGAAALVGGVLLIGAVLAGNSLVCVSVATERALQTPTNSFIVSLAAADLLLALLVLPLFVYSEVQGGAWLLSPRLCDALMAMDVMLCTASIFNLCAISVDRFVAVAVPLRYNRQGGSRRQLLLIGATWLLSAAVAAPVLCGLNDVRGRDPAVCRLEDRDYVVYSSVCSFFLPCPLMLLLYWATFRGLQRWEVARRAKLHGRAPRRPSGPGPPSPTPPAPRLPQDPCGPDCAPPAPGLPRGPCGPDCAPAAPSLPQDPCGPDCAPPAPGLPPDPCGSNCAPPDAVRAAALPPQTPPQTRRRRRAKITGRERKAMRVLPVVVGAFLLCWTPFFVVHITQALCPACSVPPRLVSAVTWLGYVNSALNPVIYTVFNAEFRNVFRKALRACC
human 5-HT1A receptor, sequence (P08908 whole entry): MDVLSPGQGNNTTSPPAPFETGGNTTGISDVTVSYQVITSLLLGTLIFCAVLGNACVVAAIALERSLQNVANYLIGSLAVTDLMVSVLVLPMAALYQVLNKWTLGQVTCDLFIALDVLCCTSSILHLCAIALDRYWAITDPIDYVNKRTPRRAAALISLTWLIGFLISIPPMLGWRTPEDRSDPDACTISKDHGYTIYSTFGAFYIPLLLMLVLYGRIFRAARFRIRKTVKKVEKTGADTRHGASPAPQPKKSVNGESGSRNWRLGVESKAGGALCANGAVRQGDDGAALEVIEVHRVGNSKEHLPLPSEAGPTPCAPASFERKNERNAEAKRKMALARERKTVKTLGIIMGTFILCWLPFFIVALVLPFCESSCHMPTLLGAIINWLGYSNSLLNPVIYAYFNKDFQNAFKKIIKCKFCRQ

- Ki (human D4 receptor [1]): 0.011 µM
- half-life [2]: 11 h
- Emax (human 5-HT1A receptor; [4]): 96%
- EC50 (human 5-HT1A receptor; [5]): < 0.01 µM
- Emax (human D4 receptor [3]; [4]): 67%
- EC50 (human D4 receptor [3]; [5]): 0.0119 µM
Structure (SMILES): O=C(NCCN1CCC(c2cccc(C(F)(F)F)n2)CC1)C1CCC(F)(F)CC1 [Example 1, 4,4-Difluoro-N-(2-{4-[6-(trifluoromethyl)pyridin-2-yl]piperidin-1-yl}ethyl)cyclohexane-carboxamide]
- enhancement effect of decreasing the number of the buried marbles compared with single administration of escitalopram (ICR male mouse; combination with escitalopram, 0.3 mg/kg administration): 43.8%
- decrease of the buried marbles for the solvent-administration group (ICR male mouse; intraperitoneal, 0.5 mg/kg administration): 44.8%
- decrease of the cataleptic freezing reaction for the solvent-administration group (SD male rat): 82.5%
